Experiment: solvent given as SMILES

**Q.** For `CC(C)(C)c1ccc2c(c1)c1cc(C(C)(C)C)ccc1n2-c1ccc(N(c2ccc(-c3ccc(-c4ccc(-c5ccc(-c6ccc(N(c7ccc(-n8c9ccc(C(C)(C)C)cc9c9cc(C(C)(C)C)ccc98)cc7)c7ccc(-n8c9ccc(C(C)(C)C)cc9c9cc(C(C)(C)C)ccc98)cc7)cc6)s5)c5nsnc45)s3)cc2)c2ccc(-n3c4ccc(C(C)(C)C)cc4c4cc(C(C)(C)C)ccc43)cc2)cc1`, which emission maximum (in ClCCl) is on record?
**A.** 640 nm

**Q.** For `COc1ccc(-c2nc3ccccc3oc2=O)cc1`, which emission maximum (in c1ccccc1) is on record?
**A.** 444 nm

**Q.** What does the source list for `c1ccc(-n2c(-c3ccc(-c4ccc(-c5ccc(-c6nc7c8ccccc8c8ccccc8c7n6-c6ccccc6)cc5)cc4)cc3)nc3ccccc32)cc1`?
**A.** emission maximum (in C1CCOC1): 435 nm; emission maximum (in C1COCCO1): 414 nm; emission maximum (in CC#N): 447 nm; emission maximum (in CCCCCC): 404 nm; emission maximum (in CCCCOCCCC): 411 nm; emission maximum (in CCN(CC)CC): 409 nm; emission maximum (in CCOC(C)=O): 425 nm; emission maximum (in CCOCC): 427 nm; emission maximum (in CN(C)C=O): 447 nm; emission maximum (in Cc1ccccc1): 413 nm; emission maximum (in ClC(Cl)Cl): 427 nm; emission maximum (in ClC=C(Cl)Cl): 417 nm; emission maximum (in ClCCl): 432 nm

**Q.** For `CCCCN1c2ccc(/C=C/c3cc(=O)oc4cc(C)ccc34)cc2Sc2cc(/C=C/c3cc(=O)oc4cc(C)ccc34)ccc21`, which emission maximum (in ClC(Cl)Cl) is on record?
**A.** 620 nm

**Q.** Which emission maximum (in CS(C)=O) does the source give for `CC1(C)C(/C=C/C=C/c2cc3ccc(O)cc3oc2=O)=[N+](CCCS(=O)(=O)[O-])c2ccccc21` here?
**A.** 653 nm

**Q.** What about the emission maximum (in O) of the same compound?
**A.** 720 nm

**Q.** Which results are given for `COc1ccc(O)cc1C=O`?
**A.** emission maximum (in CO): 489 nm; emission maximum (in ClC(Cl)Cl): 433 nm

**Q.** What does the source list for `c1ccc(-c2nc(-c3cccc4ccccc34)n3ccccc23)cc1`?
**A.** emission maximum (in C1CCCCC1): 478 nm; emission maximum (in CC#N): 480 nm; emission maximum (in CO): 475 nm; emission maximum (in ClCCl): 486 nm; emission maximum (in O): 475 nm

**Q.** For `CCCCCCCCCCCCN1C(=O)c2cccc3c(N(Cc4ccccn4)Cc4ccccn4)c4ccccc4c(c23)C1=O`, which emission maximum (in C1CCOC1) is on record?
**A.** 583 nm

**Q.** And the emission maximum (in CCCCCC)?
**A.** 555 nm

**Q.** And the emission maximum (in CCO)?
**A.** 597 nm

**Q.** And the emission maximum (in Cc1ccccc1)?
**A.** 573 nm

**Q.** What about the emission maximum (in ClCCl) of the same compound?
**A.** 587 nm

**Q.** With `COc1ccc(-c2csc(/C(C#N)=C/c3ccc(Cl)cc3)n2)cc1` as the compound, how does the emission maximum (in CC#N) read?
**A.** 543 nm

**Q.** For `CCN(CC)c1ccc(C2=C3C(C)=CC(C)=[N+]3[B-](F)(F)n3c(C)cc(C)c32)cc1`, which emission maximum (in CO) is on record?
**A.** 513 nm

**Q.** For `Nc1ccc2ccc3cccc4ccc1c2c34`, which emission maximum (in CC#N) is on record?
**A.** 425 nm

**Q.** What about the emission maximum (in CCCCOCCCC) of the same compound?
**A.** 417 nm

**Q.** And the emission maximum (in CO)?
**A.** 428 nm

**Q.** Which emission maximum (in O) does the source give for `Nc1cc([NH3+])cc(-c2nc3ccccc3s2)c1` here?
**A.** 493.5 nm

**Q.** With `c1ccc(-c2nc(-c3ccccc3)nc(-c3ccc(-c4ccc5c(c4)C4(c6ccccc6-c6ccccc64)c4cc(-c6ccc(-c7nc(-c8ccccc8)nc(-c8ccccc8)n7)cc6)ccc4N5c4ccccc4)cc3)n2)cc1` as the compound, how does the emission maximum (in c1cc(-c2cccc(-n3c4ccccc4c4ccccc43)c2)cc(-n2c3ccccc3c3ccccc32)c1) read?
**A.** 469 nm

**Q.** Which emission maximum (in ClC(Cl)Cl) does the source give for `O=c1oc2ccccc2cc1-c1cccc(-c2cc3ccccc3oc2=O)c1` here?
**A.** 419 nm

**Q.** With `F[B-]1(F)n2c(cc3oc4ccccc4c32)C(c2ccc(I)cc2)=C2C=c3oc4ccccc4c3=[N+]21` as the compound, how does the emission maximum (in ClC(Cl)Cl) read?
**A.** 647 nm

**Q.** Which emission maximum (in Cc1ccccc1) does the source give for `CC1(C)c2ccccc2N(c2ccc(-c3cnc(C#N)nc3)cc2)c2ccccc21` here?
**A.** 524 nm

**Q.** And the emission maximum (in N#Cc1ccc2c(c1)c1ccccc1n2-c1cccc(-n2c3ccccc3c3ccccc32)c1)?
**A.** 526 nm

**Q.** For `CC1=[N+]2C(=C(c3ccccc3)c3c4ccccc4c(C)n3[B-]2(F)F)c2ccccc21`, which emission maximum (in CC#N) is on record?
**A.** 606 nm

**Q.** Which emission maximum (in CC#N) does the source give for `COC(=O)c1cccc2c1C#Cc1c(N)cccc1OCCCO2` here?
**A.** 487 nm

**Q.** And the emission maximum (in ClCCl)?
**A.** 453 nm

**Q.** With `CC1=CC(/C=C/c2ccc(N(C)C)cc2)=[N+]2C1=C(c1ccccc1)c1c(C)cc(/C=C/c3ccc(N(C)C)cc3)n1[B-]2(F)F` as the compound, how does the emission maximum (in ClC(Cl)Cl) read?
**A.** 753 nm

**Q.** For `CC(C)(C)c1ccc2c3c(c4ccc(C(C)(C)C)cc4c2c1)=[N+]1C(=C(c2ccccc2)c2cc4c5ccc(C(C)(C)C)cc5c5cc(C(C)(C)C)ccc5c4n2[B-]1(F)F)C=3`, which emission maximum (in C1CCCCC1) is on record?
**A.** 709 nm

**Q.** What about the emission maximum (in C1CCOC1) of the same compound?
**A.** 713 nm

**Q.** What about the emission maximum (in CC#N) of the same compound?
**A.** 712 nm

**Q.** And the emission maximum (in Cc1ccccc1)?
**A.** 713 nm

**Q.** And the emission maximum (in ClCCl)?
**A.** 716 nm

**Q.** For `CC(C)(C)c1ccc(-c2c3cccc4c(-c5ccccc5)cc5c(-c6ccc(C(C)(C)C)cc6)c6cccc7c(-c8ccccc8)cc2c(c76)c5c43)cc1`, which emission maximum (in ClCCl) is on record?
**A.** 465 nm

**Q.** With `Cc1nc2cccc(-c3nc4ccc([N+](=O)[O-])cc4[nH]3)c2c(=O)[nH]1` as the compound, how does the emission maximum (in CN(C)C=O) read?
**A.** 450 nm

**Q.** For `c1ccc(-c2c3c(c(-c4ccccc4)c4c2-c2ccccc2C4)-c2ccccc2C3)cc1`, which emission maximum (in C1CCCCC1) is on record?
**A.** 375 nm

**Q.** For `CCCCn1c2ccccc2c2ccc(C#Cc3ccc4ccc5cccc6ccc3c4c56)cc21`, which emission maximum (in ClCCl) is on record?
**A.** 411 nm

**Q.** For `CCN(CC)c1ccc(/N=N/c2nc3ccc(Br)cc3s2)cc1`, which emission maximum (in CC#N) is on record?
**A.** 580 nm

**Q.** And the emission maximum (in ClCCl)?
**A.** 578 nm

— the Deep4Chem optical property database
